From ChEMBL document CHEMBL4840350 (J Med Chem, 2021) come the findings set out here.

Each structure is given as a SMILES string.

Data set [1] is described as follows: Stability in mouse liver S9 fraction assessed as extraction ratio at 3 uM measured upto 45 mins in presence of NADPH and UDPGA by LC-MS/MS analysis. It is filed as ADME, subcellular.
A short description of data set [2]: Stability in mouse liver S9 fraction assessed as half life at 3 uM measured upto 45 mins in presence of NADPH and UDPGA by LC-MS/MS analysis. It is filed as ADME, subcellular.
Data set [3] can be described thus: Drug uptake in po dosed CD-1 mouse xenografted with human HL-60 cells administered twice daily for 4 weeks and measured 1 to 8 hrs after post last dose. In kind it is ADME, organism-based. The note with it: in vivo, 672 h. Background: Xenograft models place foreign cells or tissue in a host animal.
A short description of data set [4]: Apparent permeability of compound in human Caco2 cells at 10 uM incubated for 120 mins by LC-MS/MS analysis. It is filed as ADME, cell-based. The note with it: Caco-2. (In general: Passage across Caco-2 layers is used to estimate intestinal permeability.)
Data set [5] in a line: Elimination half-life in CD-1 mouse at 60 mg/kg, po administered as repeated dose measured at day 4 by LC-MS/MS analysis. It is filed as ADME, organism-based. The note with it: in vivo, time 4 day, read-out: beta t1/2 (converted).
The nature of data set [6]: AUC(0 to 8 hrs) in CD-1 mouse at 3 mg/kg, po administered as single dose measured over 24 hrs by LC-MS/MS analysis. It is filed as ADME, organism-based. Further details: route oral, time 24 hrs, dose 3 mg/kg. The note with it: in vivo.
Data set [7] is described as follows: AUC(0 to 8 hrs) in CD-1 mouse at 60 mg/kg, po administered as repeated dose measured at day 1 by LC-MS/MS analysis. Further details: route oral, dose 60 mg/kg, time 1 day. It is filed as ADME, organism-based. Conditions: in vivo.
A short description of data set [8]: AUC(0 to 8 hrs) in CD-1 mouse at 60 mg/kg, po administered as repeated dose measured at day 4 by LC-MS/MS analysis. Conditions: in vivo. Further details: route oral, time 4 day, dose 60 mg/kg. It is filed as ADME, organism-based.
A short description of data set [9]: Dose normalized AUC (0 to 8 hrs) in CD-1 mouse at 3 mg/kg, po administered as single dose measured over 24 hrs by LC-MS/MS analysis. It is filed as ADME, organism-based. Conditions: in vivo.
Data set [10] in a line: Dose normalized AUC (0 to 8 hrs) in CD-1 mouse at 60 mg/kg, po administered as repeated dose measured at day 1 by LC-MS/MS analysis. It is filed as ADME, organism-based. Conditions: in vivo, 24 h, time 1 day.
Data set [11] is described as follows: Dose normalized AUC (0 to 8 hrs) in CD-1 mouse at 60 mg/kg, po administered as repeated dose measured at day 4 by LC-MS/MS analysis. It is filed as ADME, organism-based. Conditions: in vivo, 96 h, time 4 day.
Data set [12] can be described thus: Cmax in CD-1 mouse at 60 mg/kg, po administered as repeated dose measured at day 1 by LC-MS/MS analysis. It is filed as ADME, organism-based. Set-up: route oral, time 1 day, dose 60 mg/kg. Conditions: in vivo.
Data set [13] can be described thus: Cmax in CD-1 mouse at 60 mg/kg, po administered as repeated dose measured at day 4 by LC-MS/MS analysis. It is filed as ADME, organism-based. Further details: route oral, dose 60 mg/kg, time 4 day. The note with it: in vivo.
Data set [14] is described as follows: Dose normalized Cmax in CD-1 mouse at 3 mg/kg, po administered as single dose measured over 24 hrs by LC-MS/MS analysis. It is filed as ADME, organism-based. The note with it: in vivo.
Data set [15] can be described thus: Dose normalized Cmax in CD-1 mouse at 60 mg/kg, po administered as repeated dose measured at day 1 by LC-MS/MS analysis. It is filed as ADME, organism-based. Conditions: in vivo, 24 h, time 1 day.
The nature of data set [16]: Dose normalized Cmax in CD-1 mouse at 60 mg/kg, po administered as repeated dose measured at day 4 by LC-MS/MS analysis. In kind it is ADME, organism-based. The note with it: in vivo, 96 h, time 4 day.
Data set [17] is described as follows: Observed clearance in CD-1 mouse at 3 mg/kg, po administered as single dose measured over 24 hrs by LC-MS/MS analysis. In kind it is ADME, organism-based. The note with it: in vivo.

For orientation: Papp means a coefficient for how fast a substance crosses the barrier. As a reminder, the AUC(0-t) is exposure summed from dosing to a finite time, without extrapolation to infinity. Read a high AUC(0-t) as more exposure. Broadly, the AUC is the area under the concentration-time curve, a measure of exposure. As a reminder, the Cmax is the highest concentration seen after dosing. What is called CL/F is the apparent clearance, not corrected for the fraction that reaches the circulation.

As for `Cc1cc(C#N)ccc1-c1cc2c(cn1)ncn2-c1ccc(OC(F)F)cc1`, in [1], the ERH was determined as 0.02.

`COc1ccc(Cn2cnc3cnc(Nc4cccc(NC(C)=O)c4)cc32)cc1OC`: the half-life at […], 3 µM in [2] is 0.7 h.

Turning to `Cc1cc(F)ccc1-c1cc2c(cn1)ncn2-c1ccc(OC(F)F)cc1`, the Drug uptake result in data set [3] was “Dose-Dependent Effect”. For the same compound, the Papp at 2 h, 10 µM in [4] turned out to be 14 ×10⁻⁶ cm/s. For the same compound, in data set [5], the half-life was 8.1 h. For the same compound, the values for the AUC(0-t) at 24 h in data set [6] and in [7] were 363 ng·h/mL and 9860 ng·h/mL, respectively. In data set [8], this compound yielded an AUC at 96 h of 9220 ng·h/mL. The AUC/dose in data set [9] was found to be 121 ng·h/mL per mg/kg; in data set [10] it was 164 ng·h/mL per mg/kg; in data set [11], 154 ng·h/mL per mg/kg. Also, the results for the Cmax in [12] and in [13] were 2210 ng/mL and 2680 ng/mL, respectively. The Cmax/dose in data set [14] was found to be 43 ng/mL; in [15] it was 37 ng/mL; in [16] it was 45 ng/mL. The CL/F in data set [17] worked out at 129 mL/min/kg.

Consider `Cc1cc(F)ccc1-c1cc2c(cn1)ncn2-c1ccc(OC(F)F)nc1`, for which the ERH in data set [1] is recorded as 0.09.
